Results: patent publication US8921409B2, “Combination of 4-{3-[cis-hexahydrocyclopenta[c]pyrrol-2(1H)-yl]propoxy}benzamide and a NMDA receptor antagonist and pharmaceutical compositions containing the same” (Les Laboratoires Servier, priority 2011, dated 2014)
Counter-ions that a name gives are not always drawn.

Test system: middle-aged (14-15 months old) C57B16 mouse
Test: Contextual serial discrimination test (model of episodic memory)
Assay type: in vivo
Source text: The effects of 4-{3-[cis-hexahydrocyclopenta[c]pyrrol-2(1H)-yl]propoxy}benzamide and memantine (both in the form of a hydrochloride), administered on their own or in combination, were studied using a contextual discrimination test in the middle-aged (14-15 months old) C57B16 mouse (n=12 per group) (Célérier et al., Learn Mem., 2004, 11(2), 196-204; Tronche et al., Behav. Brain Res., 2010, 215(2): 255-60). In this model, the middle-aged mice have a specific dysfunction of contextual episodic memory compared to young mice, without a deficiency in spatial memory. This model is relevant for evaluating the effects of products in Alzheimer's disease because patients suffering from that form of dementia also have disturbances of contextual episodic memory, this being the case from a very early stage (Gold and Budson, Expert Rev Neurother., 2008, 8(12): 1879-1891).
The mice, placed in a box with raised edges, learn two types of consecutive spatial discrimination (D1: white floor, then D2: black floor) on a floor with four holes, in which just one of the holes is baited, the arrangement being opposite in D1 and in D2. The colour of the floor (black or white) constitutes the internal context specific to each discrimination. 24 hours after the learning step, the mice are returned to the white contextual floor, and the following are measured: • the percentage of correct responses (i.e. % of lowering the head into the hole that was baited during the learning exercise on the white floor), • the percentage of interfering responses (i.e. % of lowering the head into the hole that was baited during the learning exercise on the black floor, the last context presented to the mice), • and the percentage of errors (i.e. % of lowering the head into the two holes that were not baited during learning, whether on the white floor or on the black floor (see FIG. 1).
The power of contextual memory is defined as being the difference between the percentage of correct responses and the percentage of interfering responses. […]

## NC(=O)c1ccc(OCCCN2C[C@H]3CCC[C@H]3C2)cc1 [compound S, 4-{3-[cis-hexahydrocyclopenta[c]pyrrol-2(1H)-yl]propoxy}benzamide]
Compound S hydrochloride 0.1 mg/kg of base per os, chronic treatment for 9 days, carrier −34%
  power of contextual memory (% correct responses minus % interfering responses): −15%
Compound S on its own, 1 mg/kg of base per os
  power of contextual memory (% correct responses minus % interfering responses): +14%

## CC12CC3CC(C)(C1)CC(N)(C3)C2 [memantine hydrochloride, memantine, reference compound]
Memantine hydrochloride 1 mg/kg of base per os, chronic treatment for 9 days, carrier −34%
  power of contextual memory (% correct responses minus % interfering responses): −2%
